From patent publication US20210253705A1, “METHODS AND AGENTS FOR TREATING ORGAN INJURY AND TRANSPLANT REJECTION” (The Regents of the University of California, priority 2020, published 2021)

Tested on: BALB/c airway allografts in C57BL/6 recipients
Experiment: Heterotopic subcutaneous tracheal/airway transplantation model of allograft rejection
Assay type: in vivo, mice
Conditions: recipients treated with CCR4 inhibitor, day 14
Protocol: Each mouse was subcutaneously transplanted with two tracheas. Small molecule CCR4 inhibitor or antagonist C 021 dihydrochloride (Cat #3581, Tocris Bio-Techne, Minneapolis, Minn., USA) was resuspended in sterile DMSO to 100 mg/ml and diluted further in 1×PBS to be administered as intraperitoneal (i.p.) injections at 50 mg/kg daily starting at day −1 prior to tracheal transplantation until day 14 when allografts were harvested for rejection analysis.
Histopathological Evaluation of Airway and Lung Transplants. Airway and lung graft tissues were fixed overnight in 4% paraformaldehyde, processed, paraffin-embedded, sectioned and stained with hematoxylin and eosin (H&E) or Elastin Trichrome. Three independent blinded reviewers calculated the degree of airway injury using a histological scoring system. All qualitative histological changes were evaluated and the total murine rejection score was calculated based on four pathological criteria: (a) airway lining epithelial loss, (b) deposition of extracellular matrix (ECM), (c) leukocyte infiltration, and (d) luminal fibro-obliteration due to granulation tissue formation and/or fibrosis. Each process was scored on a scale of 0-4 (0=normal, 1=mild, 2=moderate, 3=severe and 4=very severe) and added together for a total rejection score. […] Images were taken by Zeiss Axioskop 2 plus microscope and analyzed with AxioVision 4.2 imaging software. […]

## COc1cc2nc(N3CCC(N4CCCCC4)CC3)nc(NC3CCCCCC3)c2cc1OC.Cl.Cl [C 021 dihydrochloride, 2-[1,4′-bipiperidin]-1′-yl-N-cycloheptyl-6,7-dimethoxy-4-quinazolinamine dihydrochloride]
  H&E histology of airway allografts: virtually normal epithelium and minimal matrix deposition without fibro-obliteration
